Literature values in article PMC10928227, “Assessing biologic/toxicologic effects of extractables from plastic contact materials for advanced therapy manufacturing using cell painting assay and cytotoxicity screening” (Scientific Reports, 2024).
Like-named read-outs stand apart in the source and are kept apart here.

Conditions: cited from earlier work; for Risk based on in vitro genotoxicity data from database (from QSAR-toolbox): not checked for in vivo relevance, ref QSAR Toolbox 4.5 database
[1] = Salmonella typhimurium, Strain TA 98, in Vitro, Database: Bacterial mutagenicity ISSSTY, ref CCRIS database,Toxnet databases (Romualdo Benigni)
[2] = in Vitro, Salmonella typhimurium, Strain TA 97, Database Genotoxicity OASIS, ref P&G
[3] = in Vitro, Salmonella typhimurium, Strain TA 98, Database Bacterial mutagenicity ISSSTY, ref CCRIS database,Toxnet databases, Romualdo Benigni, 02.5.2011
[4] = in Vitro, Salmonella typhimurium, Strain TA 98, Database Genotoxicity OASIS, ref P&G
[5] = in Vitro, Salmonella typhimurium, Strain TA 100, Database Genotoxicity OASIS, ref P&G
[6] = in Vitro, Salmonella typhimurium, Strain TA 1535, Database Bacterial mutagenicity ISSSTY, ref CCRIS database,Toxnet databases, Romualdo Benigni, 02.5.2011
[7] = in Vitro, Salmonella typhimurium, Strain TA 1535, Database Genotoxicity OASIS, ref P&G
[8] = in Vitro, Salmonella typhimurium, Strain TA 1537, Database Bacterial mutagenicity ISSSTY, ref CCRIS database,Toxnet databases, Romualdo Benigni, 02.5.2011
[9] = in Vitro, Salmonella typhimurium, Strain TA 1537, Database Genotoxicity OASIS, ref P&G
[10] = in Vitro, Salmonella typhimurium, Strain TA 1538, Database Genotoxicity OASIS, ref P&G
[11] = in Vitro, Chinese hamster, Chinese Hamster Lung Cells, Guidelines For Screening Mutagenicity Testing of Chemicals (Chemical Substances Control Law of Japan), Database Toxicity Japan MHLW, ref Japan Ministry of Health Labour and Welfare, http://dra4.nihs.go.jp/mhlw_data/jsp/SearchPageENG.jsp
[12] = Salmonella typhimurium, Strain TA 100, in Vitro, Database: Bacterial mutagenicity ISSSTY, ref CCRIS database,Toxnet databases (Romualdo Benigni)
[13] = Salmonella typhimurium, Strain TA 102, in Vitro, Database: Bacterial mutagenicity ISSSTY, ref CCRIS database,Toxnet databases (Romualdo Benigni)
[14] = in Vitro, Salmonella typhimurium, No Strain Information, Database Genotoxicity OASIS, ref Journal of Medicinal Chemistry 48 (1), pp. 312-32, 25, Kazius J, McGuire R., Bursi R

## CC(=O)c1ccccc1 [Acetophenone]
  Risk based on in vitro genotoxicity data from database (from QSAR-toolbox): Positive in vitro data

## OCc1ccccc1 [Benzylalcohol]
  Risk based on in vitro genotoxicity data from database (from QSAR-toolbox): Positive in vitro data

## Oc1ccccc1 [Phenol]
Heading line of the measured and predicted data section, ref QSAR Toolbox database
  Measured and predicted data (remark on genetic toxicity): suspected of causing genetic defects
  Risk based on in vitro genotoxicity data from database (from QSAR-toolbox): Positive in vitro data

## Cc1cc(C(C)(C)C)c(O)c(C(C)(C)C)c1 [Butylated hydroxytoluene]
  Risk based on in vitro genotoxicity data from database (from QSAR-toolbox): Positive in vitro data

## O=C1CCCCCN1 [Caprolactam]
  Risk based on in vitro genotoxicity data from database (from QSAR-toolbox): Positive in vitro data

## CCCCOC(=O)c1ccccc1C(=O)OCCCC [84-74-2]
[1]
  Gene mutation, Bacterial Reverse Mutation Assay (e.g. Ames Test): Negative
Salmonella typhimurium, Strain TA 1535, in Vitro, Database: Bacterial mutagenicity ISSSTY, ref CCRIS database,Toxnet databases (Romualdo Benigni)
  Gene mutation, Bacterial Reverse Mutation Assay (e.g. Ames Test): Negative
Salmonella typhimurium, Strain TA 1537, in Vitro, Database: Bacterial mutagenicity ISSSTY, ref CCRIS database,Toxnet databases (Romualdo Benigni)
  Gene mutation, Bacterial Reverse Mutation Assay (e.g. Ames Test): Negative
In Vitro, Chinese hamster, Chinese Hamster Lung (CHL), Duration 6÷18 h, Database Genotoxicity OASIS, ref Sofuni, T., Ed. (1998). Data Book of Chromosomal Aberration Test In Vitro, Revised Edition
  Chromosome aberration, in Vitro Mammalian Chromosome Aberration Test: Negative
In Vitro, Chinese hamster, Chinese Hamster Lung (CHL), Duration 24÷48 h, Database Genotoxicity OASIS, ref Sofuni, T., Ed. (1998). Data Book of Chromosomal Aberration Test In Vitro, Revised Edition
  Chromosome aberration, in Vitro Mammalian Chromosome Aberration Test: Negative
[2]
  Gene mutation, Bacterial Reverse Mutation Assay (e.g. Ames Test): Negative
[3]
  Gene mutation, Bacterial Reverse Mutation Assay (e.g. Ames Test): Negative
[4]
  Gene mutation, Bacterial Reverse Mutation Assay (e.g. Ames Test): Negative
[5]
  Gene mutation, Bacterial Reverse Mutation Assay (e.g. Ames Test): Negative
[6]
  Gene mutation, Bacterial Reverse Mutation Assay (e.g. Ames Test): Negative
[7]
  Gene mutation, Bacterial Reverse Mutation Assay (e.g. Ames Test): Negative
[8]
  Gene mutation, Bacterial Reverse Mutation Assay (e.g. Ames Test): Negative
[9]
  Gene mutation, Bacterial Reverse Mutation Assay (e.g. Ames Test): Negative
[10]
  Gene mutation, Bacterial Reverse Mutation Assay (e.g. Ames Test): Negative

## Cc1ccc(S(N)(=O)=O)cc1 [70-55-3]
Salmonella typhimurium, No Strain Information, in Vitro, Database: Genotoxicity OASIS, ref NIHS Japan
  Gene mutation, Bacterial Reverse Mutation Assay (e.g. Ames Test): Negative
Salmonella typhimurium, Strain TA 98, in Vitro, Database: Genotoxicity OASIS, ref https://doi.org/10.22427/NTP-DATA-022-00002-0001-000-7, National Institute of Environmental Health Sciences
  Gene mutation, Bacterial Reverse Mutation Assay (e.g. Ames Test): Negative
Salmonella typhimurium, Strain TA 100, in Vitro, Database: Genotoxicity OASIS, ref https://doi.org/10.22427/NTP-DATA-022-00002-0001-000-7, National Institute of Environmental Health Sciences
  Gene mutation, Bacterial Reverse Mutation Assay (e.g. Ames Test): Negative
Salmonella typhimurium, Strain TA 102, in Vitro, Database: Genotoxicity OASIS, ref https://doi.org/10.22427/NTP-DATA-022-00002-0001-000-7, National Institute of Environmental Health Sciences
  Gene mutation, Bacterial Reverse Mutation Assay (e.g. Ames Test): Negative
Salmonella typhimurium, Strain TA 1535, in Vitro, OECD Guideline 471, Database: Genotoxicity OASIS, ref Japan Existing Chemical Data Base
  Gene mutation, Bacterial Reverse Mutation Assay (e.g. Ames Test): Negative
[11]
  Chromosome aberration, in Vitro Mammalian Chromosome Aberration Test: Negative
In Vitro, E. coli WP2 uvrA, Database Genotoxicity OASIS, ref ECHA, Registration dossier
  Gene mutation, Bacterial Reverse Mutation Assay (e.g. Ames Test): Negative
In Vitro, Escherichia coli, Strain WP2 UvrA, Guidelines For Screening Mutagenicity Testing of Chemicals (Chemical Substances Control Law of Japan), Database Toxicity Japan MHLW, ref Japan Existing Chemical Data Base, http://dra4.nihs.go.jp/mhlw_data/jsp/SearchPageENG.jsp
  Gene mutation, Bacterial Reverse Mutation Assay (e.g. Ames Test): Negative
In Vitro, No Strain Information, Database Genotoxicity OASIS, ref NIHS Japan
  Chromosome aberration, in Vitro Mammalian Chromosome Aberration Test: Negative
In Vitro, Salmonella typhimurium, Strain TA 97, Guidelines For Screening Mutagenicity Testing of Chemicals (Chemical Substances Control Law of Japan), Database Toxicity Japan MHLW, ref Japan Existing Chemical Data Base, http://dra4.nihs.go.jp/mhlw_data/jsp/SearchPageENG.jsp
  Gene mutation, Bacterial Reverse Mutation Assay (e.g. Ames Test): Negative
In Vitro, Salmonella typhimurium, Strain TA 100, Guidelines For Screening Mutagenicity Testing of Chemicals (Chemical Substances Control Law of Japan), Database Toxicity Japan MHLW, ref Japan Existing Chemical Data Base, http://dra4.nihs.go.jp/mhlw_data/jsp/SearchPageENG.jsp
  Gene mutation, Bacterial Reverse Mutation Assay (e.g. Ames Test): Negative
In Vitro, Salmonella typhimurium, Strain TA 1535, Guidelines For Screening Mutagenicity Testing of Chemicals (Chemical Substances Control Law of Japan), Database Toxicity Japan MHLW, ref Japan Existing Chemical Data Base, http://dra4.nihs.go.jp/mhlw_data/jsp/SearchPageENG.jsp
  Gene mutation, Bacterial Reverse Mutation Assay (e.g. Ames Test): Negative
In Vitro, Salmonella typhimurium, Strain TA 1535, OECD Guideline 471, Database Genotoxicity OASIS, ref Japan Existing Chemical Data Base
  Gene mutation, Bacterial Reverse Mutation Assay (e.g. Ames Test): Negative
In Vitro, Salmonella typhimurium, Strain TA 1537, Guidelines For Screening Mutagenicity Testing of Chemicals (Chemical Substances Control Law of Japan), Database Toxicity Japan MHLW, ref Japan Existing Chemical Data Base, http://dra4.nihs.go.jp/mhlw_data/jsp/SearchPageENG.jsp
  Gene mutation, Bacterial Reverse Mutation Assay (e.g. Ames Test): Negative
In Vitro, Salmonella typhimurium, Strain TA 1537, OECD Guideline 471, Database Genotoxicity OASIS, ref Japan Existing Chemical Data Base
  Gene mutation, Bacterial Reverse Mutation Assay (e.g. Ames Test): Negative

## Sc1nc2ccccc2s1 [2-Mercaptobenzothiazole]
  Risk based on in vitro genotoxicity data from database (from QSAR-toolbox): Positive in vitro data

## CCCCCCCCCc1ccc(O)cc1 [104-40-5]
[12]
  Gene mutation, Bacterial Reverse Mutation Assay (e.g. Ames Test): Negative
[13]
  Gene mutation, Bacterial Reverse Mutation Assay (e.g. Ames Test): Negative
[14]
  Gene mutation, Bacterial Reverse Mutation Assay (e.g. Ames Test): Negative
In Vitro, Salmonella typhimurium, Strain TA 97, Database Bacterial mutagenicity ISSSTY, ref CCRIS database,Toxnet databases, Romualdo Benigni, 02.5.2011
  Gene mutation, Bacterial Reverse Mutation Assay (e.g. Ames Test): Negative
[3]
  Gene mutation, Bacterial Reverse Mutation Assay (e.g. Ames Test): Negative
In Vitro, Salmonella typhimurium, Strain TA 100, Database Bacterial mutagenicity ISSSTY, ref CCRIS database,Toxnet databases, Romualdo Benigni, 02.5.2011
  Gene mutation, Bacterial Reverse Mutation Assay (e.g. Ames Test): Negative
In Vitro, Salmonella typhimurium, Strain TA 102, Database Bacterial mutagenicity ISSSTY, ref CCRIS database,Toxnet databases, Romualdo Benigni, 02.5.2011
  Gene mutation, Bacterial Reverse Mutation Assay (e.g. Ames Test): Negative
In Vitro, Salmonella typhimurium, Strain TA 104, Database Bacterial mutagenicity ISSSTY, ref CCRIS database,Toxnet databases, Romualdo Benigni, 02.5.2011
  Gene mutation, Bacterial Reverse Mutation Assay (e.g. Ames Test): Negative
[6]
  Gene mutation, Bacterial Reverse Mutation Assay (e.g. Ames Test): Negative
[8]
  Gene mutation, Bacterial Reverse Mutation Assay (e.g. Ames Test): Negative
In Vitro, Salmonella typhimurium, Strain TA 1538, Database Bacterial mutagenicity ISSSTY, ref CCRIS database,Toxnet databases, Romualdo Benigni, 02.5.2011
  Gene mutation, Bacterial Reverse Mutation Assay (e.g. Ames Test): Negative

## CCCCCCCC(=O)O [124-07-2]
[11]
  Chromosome aberration, in Vitro Mammalian Chromosome Aberration Test: Negative

## CN1CCCC1=O [872-50-4]
Salmonella typhimurium, Strain TA 97, in Vitro, Database: Bacterial mutagenicity ISSSTY, ref CCRIS database,Toxnet databases (Romualdo Benigni)
  Gene mutation, Bacterial Reverse Mutation Assay (e.g. Ames Test): Negative
[1]
  Gene mutation, Bacterial Reverse Mutation Assay (e.g. Ames Test): Negative
[12]
  Gene mutation, Bacterial Reverse Mutation Assay (e.g. Ames Test): Negative
[13]
  Gene mutation, Bacterial Reverse Mutation Assay (e.g. Ames Test): Negative
Salmonella typhimurium, Strain TA 104, in Vitro, Database: Bacterial mutagenicity ISSSTY, ref CCRIS database,Toxnet databases (Romualdo Benigni)
  Gene mutation, Bacterial Reverse Mutation Assay (e.g. Ames Test): Negative
Salmonella typhimurium, Strain TA 2638, in Vitro, Database: Bacterial mutagenicity ISSSTY, ref CCRIS database,Toxnet databases (Romualdo Benigni)
  Gene mutation, Bacterial Reverse Mutation Assay (e.g. Ames Test): Negative
[14]
  Gene mutation, Bacterial Reverse Mutation Assay (e.g. Ames Test): Negative
[2]
  Gene mutation, Bacterial Reverse Mutation Assay (e.g. Ames Test): Negative
[4]
  Gene mutation, Bacterial Reverse Mutation Assay (e.g. Ames Test): Negative
[5]
  Gene mutation, Bacterial Reverse Mutation Assay (e.g. Ames Test): Negative
In Vitro, Salmonella typhimurium, Strain TA 102, OECD Guideline 471, Database Genotoxicity OASIS, ref CCRIS database,Toxnet databases
  Gene mutation, Bacterial Reverse Mutation Assay (e.g. Ames Test): Negative
[7]
  Gene mutation, Bacterial Reverse Mutation Assay (e.g. Ames Test): Negative
[9]
  Gene mutation, Bacterial Reverse Mutation Assay (e.g. Ames Test): Negative
[10]
  Gene mutation, Bacterial Reverse Mutation Assay (e.g. Ames Test): Negative

## CC(C)(C)c1ccc(O)c(C(C)(C)C)c1 [2,4-Di-tert-butylphenol]
  Risk based on in vitro genotoxicity data from database (from QSAR-toolbox): Positive in vitro data

## CCCC(C)=O [107-87-9]
In Vitro, Salmonella typhimurium, No Strain Information, Database Genotoxicity OASIS, ref J. Chem. Inf. Model., 2009, 49 (9), pp 2077–2081, Hansen K. et al.
  Gene mutation, Bacterial Reverse Mutation Assay (e.g. Ames Test): Negative

## Nc1ccccc1 [Aniline]
  Risk based on in vitro genotoxicity data from database (from QSAR-toolbox): Positive in vitro data

## S=c1[nH]c2ccccc2s1 [149-30-4]
In Vitro, No Strain Information, Database Genotoxicity OASIS, ref Mutation Research 584 (2005) 1-256, Kirkland et al.
  Chromosome aberration, in Vitro Mammalian Chromosome Aberration Test: Positive
In Vitro, T-lymphoma Cell Lines, Database Genotoxicity OASIS, ref Mutation Research 584 (2005) 1-256, Kirkland et al.
  Gene mutation, Mammalian Cell Gene Mutation Assay: Positive
